pKi: −log10 of the molar value. Active and inactive are the calls of the source. The calls are words filed in the database; no cut-off is given here.

Data set [1] addresses T1, GABA-A receptor; alpha-3/beta-3/gamma-2 (Homo sapiens) (UniProt P18507+P28472+P34903). Nature of the data set: Efficacy against recombinant human GABA-Aalpha3 receptor plus beta-3-gamma-2 as measured by modulation of chloride ion flux. In kind it is functional.
In data set [2] the target is T2, GABA-A receptor; alpha-3/beta-3/gamma-2 (Homo sapiens, UniProt P18507+P28472+P34903).
T2 sequence (P18507 whole entry): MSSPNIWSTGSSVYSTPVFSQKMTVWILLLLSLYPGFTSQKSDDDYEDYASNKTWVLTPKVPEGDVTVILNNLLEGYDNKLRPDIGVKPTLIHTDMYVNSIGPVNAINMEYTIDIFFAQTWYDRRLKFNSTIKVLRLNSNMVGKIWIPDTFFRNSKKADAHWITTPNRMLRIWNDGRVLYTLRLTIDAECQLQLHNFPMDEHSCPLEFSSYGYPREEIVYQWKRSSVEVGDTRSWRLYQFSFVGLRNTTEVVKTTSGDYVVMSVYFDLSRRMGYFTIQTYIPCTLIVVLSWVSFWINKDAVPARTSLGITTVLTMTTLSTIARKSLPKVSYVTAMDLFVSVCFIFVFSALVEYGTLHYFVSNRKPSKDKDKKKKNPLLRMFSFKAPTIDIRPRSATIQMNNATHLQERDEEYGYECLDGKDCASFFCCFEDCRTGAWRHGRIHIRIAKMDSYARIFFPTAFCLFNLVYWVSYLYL
T2 sequence (P28472 whole entry): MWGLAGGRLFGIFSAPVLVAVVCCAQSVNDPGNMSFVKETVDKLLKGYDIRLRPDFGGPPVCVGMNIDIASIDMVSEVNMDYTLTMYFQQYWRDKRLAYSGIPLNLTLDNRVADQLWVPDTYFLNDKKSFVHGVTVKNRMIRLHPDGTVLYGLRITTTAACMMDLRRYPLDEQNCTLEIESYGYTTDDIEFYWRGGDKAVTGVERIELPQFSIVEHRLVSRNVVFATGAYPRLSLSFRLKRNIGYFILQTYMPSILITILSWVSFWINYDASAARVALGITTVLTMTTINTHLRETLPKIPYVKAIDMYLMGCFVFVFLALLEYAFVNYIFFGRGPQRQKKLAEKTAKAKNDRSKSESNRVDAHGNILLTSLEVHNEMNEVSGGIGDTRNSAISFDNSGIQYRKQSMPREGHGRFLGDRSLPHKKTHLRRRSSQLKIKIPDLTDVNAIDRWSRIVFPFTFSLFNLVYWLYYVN
T2 sequence (P34903 whole entry): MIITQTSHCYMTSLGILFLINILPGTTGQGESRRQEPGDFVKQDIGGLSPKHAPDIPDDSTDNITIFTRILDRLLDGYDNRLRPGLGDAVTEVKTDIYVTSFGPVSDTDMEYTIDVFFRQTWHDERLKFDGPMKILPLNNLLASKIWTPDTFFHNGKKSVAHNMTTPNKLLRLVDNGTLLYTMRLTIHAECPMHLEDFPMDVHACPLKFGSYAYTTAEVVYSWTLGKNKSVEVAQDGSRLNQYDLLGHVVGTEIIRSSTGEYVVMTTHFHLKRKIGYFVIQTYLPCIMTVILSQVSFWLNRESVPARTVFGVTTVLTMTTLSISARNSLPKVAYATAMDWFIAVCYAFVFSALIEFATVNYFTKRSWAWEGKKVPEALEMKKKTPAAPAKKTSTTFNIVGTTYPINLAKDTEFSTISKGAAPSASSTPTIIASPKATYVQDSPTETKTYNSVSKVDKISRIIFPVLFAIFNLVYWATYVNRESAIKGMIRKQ
Nature of the data set: Displacement of [3H]Ro 15-1788 from recombinant human GABA-Aalpha3 receptor plus beta-3-gamma-2 expressed in L(tk-) cells. In kind it is cell-based. A general note: Loss of bound radioactivity is the signal in a displacement assay; it reports binding, not function.

Data set [3] has as its target T3, GABA-A receptor; alpha-1/beta-3/gamma-2 (Homo sapiens) (UniProt P14867+P18507+P28472). Nature of the data set: Efficacy against recombinant human GABA-Aalpha1 receptor plus beta-3-gamma-2 as measured by modulation of chloride ion flux. Format: functional.
The target in data set [4] is T4, GABA-A receptor; alpha-1/beta-3/gamma-2 (Homo sapiens, UniProt P14867+P18507+P28472).
T4 sequence (P14867 whole entry): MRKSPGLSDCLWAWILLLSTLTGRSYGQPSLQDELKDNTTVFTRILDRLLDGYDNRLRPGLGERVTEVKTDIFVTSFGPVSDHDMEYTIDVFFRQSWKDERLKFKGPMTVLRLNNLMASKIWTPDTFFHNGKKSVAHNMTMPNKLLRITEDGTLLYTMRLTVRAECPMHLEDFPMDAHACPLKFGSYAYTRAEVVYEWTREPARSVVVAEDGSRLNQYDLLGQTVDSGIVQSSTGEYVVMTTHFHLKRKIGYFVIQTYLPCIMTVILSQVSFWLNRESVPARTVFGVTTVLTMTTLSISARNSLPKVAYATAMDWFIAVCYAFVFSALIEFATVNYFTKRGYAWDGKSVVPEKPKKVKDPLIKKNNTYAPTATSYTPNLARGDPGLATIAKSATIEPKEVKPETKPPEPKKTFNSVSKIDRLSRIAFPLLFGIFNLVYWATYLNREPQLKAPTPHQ
T4 sequence (P18507 whole entry): T2 sequence (P18507 whole entry)
T4 sequence (P28472 whole entry): T2 sequence (P28472 whole entry)
The data set can be described thus: Displacement of [3H]Ro 15-1788 from recombinant human GABA-Aalpha1 receptor plus beta-3-gamma-2 expressed in L(tk-) cells. Format: cell-based.

A short description of data set [5]: Metabolism in dog liver microsomes at 1 uM. (In general: Liver microsomes are vesicles of endoplasmic reticulum, rich in cytochrome P450 enzymes.)
Data set [6] concerns the target T3, GABA-A receptor; alpha-1/beta-3/gamma-2 (Homo sapiens). The data set can be described thus: Efficacy against recombinant human GABA-Aalpha1 receptor plus beta-3-gamma-2 expressed in L(tk-) cells by whole cell patch clamp method. In kind it is functional, cell-based. Background: In patch-clamp work, channel activity is measured electrically.
The target in data set [7] is T1, GABA-A receptor; alpha-3/beta-3/gamma-2 (Homo sapiens). The data set can be described thus: Efficacy against recombinant human GABA-Aalpha3 receptor plus beta-3-gamma-2 expressed in L(tk-) cells by whole cell patch clamp method. Format: functional, cell-based.
Data set [8] can be described thus: Rat brain to plasma ratio at 1 mg/kg, po. Format: ADME, organism-based. The arrangement: dose 1 mg/kg, route oral. Conditions: brain and plasma.
For data set [9], the target named is GABA-A receptor; anion channel (Rattus norvegicus) (UniProt O09028+P15431+P18506+P18508+P19969+P20236+P23574+P23576+P28471+P28473+P30191+P62813+P63079+P63138+Q91ZM7+Q9ES14). The data set can be described thus: Receptor occupancy in vivo by displacement of [3H]Ro 15-1788 binding from GABA-A receptor in rat at 1 mg/kg, po. In kind it is functional, organism-based. Also noted: dose 1 mg/kg.

The test system of the next data set is Plasma. The data set can be described thus: Receptor occupancy in plasma of rat at 1 mg/kg, po. In kind it is functional.
For the next data set, the species on record is Canis familiaris. Nature of the data set: Stability in dog liver microsomes. In kind it is ADME, Canis lupus familiaris, Microsome.
A further data set is filed under the species Homo sapiens. Nature of the data set: Stability in human liver microsomes. In kind it is ADME, Microsome.
Data set [10] deals with GABA-A receptor; alpha-5/beta-3/gamma-2 (Homo sapiens) (UniProt P18507+P28472+P31644). Nature of the data set: Displacement of [3H]Ro 15-1788 from recombinant human GABA-Aalpha5 receptor plus beta3gamma2 expressed in L(tk-) cells. Format: cell-based.
In another data set the test system is Mus musculus. Nature of the data set: Proconvulsant activity in Swiss Webster mice at 10 mg/kg, ip by pentylenetetrazole assay. The settings on record: in vivo. Also noted: dose 10 mg/kg, route intraperitoneal. In kind it is ADME, organism-based.

As for `FC(F)(F)c1ccn2c(-c3ccccn3)cnc2n1`, the figures for the Efficacy in data set [1] and in data set [3] were -7% and -40%, respectively. Besides, the pKi is 7.96 in data set [2] and 8.04 in data set [4].

For the molecule `N#Cc1ccccc1-c1cccc(-c2cnc3nc(C(F)(F)F)ccn23)c1`, the metabolized at 1 µM in [5] was found to be 100%. Further, the Efficacy turned out to be 53% in data set [1], 19% in [6], 10% in [3] and 59% in data set [7].

As to `FC(F)(F)c1ccn2c(-c3cc(Cl)ncn3)cnc2n1`, the pKi in data set [2] and in [4] was less than 7.48 throughout.

As for `FC(F)(F)c1cccc(-c2cnc3nc(C(F)(F)F)ccn23)n1`, the Efficacy in data set [1] was -40%; in [3], -24%. Besides, the pKi in [2] was 9.06; in data set [4], 9.51.

For the molecule `N#Cc1cc(F)ccc1-c1cc(-c2cnc3nc(C(F)(F)F)ccn23)ccn1`, in data set [8], the Kp worked out at 0.73. In addition, the Efficacy in data set [1] turned out to be 21%; in [6] it was 0%; in data set [3], 9%; in [7] it was 22%. The values for the Activity (in [9]; in the data set with Plasma) were 50% and 0.15 µM, respectively. Besides, the pKi in data set [2] is 8.66; in data set [4], 9.00. Also, the Stability in the data set filed under Canis familiaris and in the data set listed under Homo sapiens was less than 5% each time.

For the molecule `COc1cccc(-c2cnc3nc(C(F)(F)F)ccn23)n1`, the Efficacy is -9% in [1], -41.4% in data set [6], -22% in [3] and -51.6% in data set [7]. The pKi is 8.77 in [2] and 8.92 in [4].

As for `FC(F)(F)c1ccn2c(-c3cccc(Br)n3)cnc2n1`, the Efficacy stood at 2% in data set [1] and 11% in [3]. The pKi in [2] was 9.17; in data set [4] it was 9.51.

On to `N#Cc1ccccc1-c1cncc(-c2cnc3nc(C(F)(F)F)ccn23)c1`, for which the Efficacy is -39% in data set [1] and -55% in [3]. In addition, the negative logarithm of the Ki (pKi) in data set [2] was less than 7.48; in [4] it was 7.74.

In data set [5], `N#Cc1ccccc1-c1nccc(-c2cnc3nc(C(F)(F)F)ccn23)n1` had a metabolized at 1 µM of 56%. The Efficacy was -15% in data set [1] and -29% in data set [3]. The pKi is 8.85 in data set [2] and 9.00 in [4]. Further, the outcome in data set [10] was Active.

Turning to `CCO/N=C(\C)c1ccc2c(c1)ncn2-c1cccc(-c2cccnc2)c1`, the pKi was 7.89 in data set [2] and 8.72 in data set [4].

As for `COc1ccccc1-c1cc(-c2cnc3nc(C(F)(F)F)ccn23)ccn1`, the Efficacy was 54% in data set [1] and 35% in data set [3]. Also, the pKi in [2] was 8.21; in data set [4], 8.24.

For `FC(F)(F)c1ccn2c(-c3ccnc(Cl)n3)cnc2n1`, the results for the Efficacy in [1], in data set [3] and in data set [7] were -19%, -22% and -24.9%, respectively. Also, the pKi in data set [2] is 8.70; in data set [4], 9.03. The Activity entry in the data set with Mus musculus is listed as “Inverse agonist”.

Regarding `Fc1ccccc1-c1cc(-c2cnc3nc(C(F)(F)F)ccn23)ccn1`, the results for the Efficacy in data set [1] and in [3] were 23% and 6%, respectively. The figures for the pKi in [2] and in [4] were 7.85 and 8.08, respectively.

`N#Cc1ccccc1-c1cc(-c2cnc3nc(C(F)(F)F)ccn23)ccn1` gave a metabolized at 1 µM in data set [5] of 4%. Besides, the Efficacy came to 43% in data set [1], 15% in data set [6], 4% in data set [3] and 45% in [7]. In addition, the negative logarithm of the Ki (pKi) in data set [2] is 8.54; in data set [4], 8.60. In addition, in [10], the result was Active.

In the case of `COc1cc(-c2cnc3nc(C(F)(F)F)ccn23)ccn1`, the figures for the pKi in data set [2] and in data set [4] were less than 7.48 and 7.54, respectively.

`N#Cc1ccccc1-c1ccnc(-c2cnc3nc(C(F)(F)F)ccn23)c1`: the pKi in [2] and in data set [4] was less than 7.48 each time.

On to `FC(F)(F)c1ccn2c(-c3cc(Cl)ccn3)cnc2n1`, for which the pKi in data set [2] and in data set [4] was less than 7.48 each time.

Turning to `Fc1cccc(-c2cc(-c3cnc4nc(C(F)(F)F)ccn34)ccn2)c1`, the pKi in data set [2] and in data set [4] was less than 7.48 in each case.

For `N#Cc1ccccc1-c1ccnc(-c2cnc3nc(C(F)(F)F)ccn23)n1`, the pKi in [2] and in data set [4] was less than 7.48 in each case.

As for `N#Cc1ccccc1-c1cccc(-c2cnc3nc(C(F)(F)F)ccn23)n1`, in data set [5], the metabolized at 1 µM came out at 15%. Moreover, the Efficacy in [1] was 10%; in [3], -8%; in data set [7], -22%. Besides, the pKi is 9.34 in data set [2] and 9.44 in data set [4]. Besides, the outcome in [10] was Active.

For orientation: pKi means the negative decadic logarithm of the Ki, by convention in mol/L. One may read the Kp as tissue or fluid exposure divided by exposure in the circulation.

The values are drawn from ChEMBL document CHEMBL1138168, “Imidazo[1,2-a]pyrimidines as functionally selective GABA(A) ligands” (Bioorg Med Chem Lett, 2006).
